Reference: ChEMBL document CHEMBL5576076, “Bioisosteric heterocyclic analogues of natural bioactive flavonoids by scaffold-hopping approaches: State-of-the-art and perspectives in medicinal chemistry” (Bioorg Med Chem, 2024)
Values after ≈ are worked out from the molar mass of the structure shown.

Assays:
HepG2 [1] = assay: Cytotoxicity against human HepG2 cells assessed as reduction in cell growth incubated for 48 hrs by MTT assay; format: functional, cell-based; conditions: HepG2, 48 h
KB = assay: Cytotoxicity against human KB cells assessed as reduction in cell growth incubated for 48 hrs by MTT assay; format: functional, cell-based
Staphylococcus aureus = assay: Antibacterial activity against Methicillin-resistant Staphylococcus aureus assessed as reduction in bacterial growth; format: functional
[2] = target: Quinolone resistance protein NorA (Staphylococcus aureus) (UniProt P0A0J7); assay: Inhibition of NorA efflux pump in Staphylococcus aureus SA1199B overexpressing NorA gene assessed as inhibition of EtBr efflux at 50 uM incubated for 20 mins by fluorometric assay
Influenza A virus = assay: Antiviral activity against Influenza A virus H1N1 infected in dog MDCK cells assessed as inhibition in virus-induced cytopathic effect incubated for 48 hrs by SRB assay; format: functional, organism-based
[3] = Inhibition of Influenza A virus H1N1 neuraminidase
[4] = Inhibition of human LOX
Homo sapiens = organism: Homo sapiens; assay: Inhibition of human Lipoxygenase at 100 uM relative to control
Tubulin = assay: Inhibition of tubulin polymerization (unknown origin); format: protein-complex assay, Homo sapiens
Tubulin (Homo sapiens) = Tubulin (Homo sapiens) (UniProt P68371+Q9H4B7+P0DPH7+P68366+Q13509+Q71U36+P04350+Q3ZCM7+P07437+P68363+Q9BQE3+Q6PEY2+Q13885+Q9BVA1+Q9BUF5); assay: Inhibition of [3H]-colchicine binding to tubulin (unknown origin) at 5 uM relative to control; format: protein-complex assay
MCF7 [5] = assay: cells; conditions: Homo sapiens, MCF7, 72 h
Cytochrome P450 1A2 = Cytochrome P450 1A2 (Homo sapiens, UniProt P05177); assay: Inhibition of CYP1A2 (unknown origin); format: ADME
HL-60 = assay: Antiproliferative activity against human HL-60 cells assessed as reduction in cell growth incubated for 48 hrs by MTT assay; format: functional, cell-based; conditions: HL-60, 48 h
MV4-11 = assay: Antiproliferative activity against human MV4-11 cells assessed as reduction in cell growth incubated for 48 hrs by MTT assay; format: functional, cell-based; conditions: MV4-11, 48 h
[6] = test system: Human immunodeficiency virus 1; assay: Antiviral activity against HIV1 infected in H9 cells assessed as reduction in viral replication; format: functional; conditions: Human immunodeficiency virus 1, H9; read-out: ED50 (the source's name)
[7] = target: Dual specificity mitogen-activated protein kinase kinase 1 (Homo sapiens, UniProt Q02750); assay: Inhibition of RAF1- induced activation of MEK (unknown origin) signalling pathway assessed as reduction in MEK1 phosphorylation
[8] = target: Mitogen-activated protein kinase; ERK1/ERK2 (Homo sapiens, UniProt P27361+P28482); assay: Inhibition of RAF1- induced activation of MEK (unknown origin) signalling pathway assessed as reduction in ERK1/2 phosphorylation; format: protein assay
WiDr = assay: Antiproliferative activity against human WiDr cells assessed as reduction in cell viability incubated for 48 hrs by MTT assay; format: functional, cell-based
HT-1080 = assay: cells; conditions: Homo sapiens, HT-1080, 48 h
Description: Antiproliferative activity against human HT-1080 cells assessed as reduction in cell viability incubated for 48 hrs by MTT assay

[9] = target: Epidermal growth factor receptor (Homo sapiens, UniProt P00533); assay: Inhibition of EGFR (unknown origin)
DU-145 [10] = assay: Antiproliferative activity against human DU-145 cells assessed as reduction in cell viability measured for 48 hrs by MTT assay; format: functional, cell-based; conditions: DU-145, 48 h
DU-145 [11] = assay: Antitumor activity against human DU-145 cells xenografted in Balb/c nude mouse model assessed as tumor growth inhibition at 5 mg/kg, ip administered once daily for 16 days relative to control; format: functional; set-up: scale not given: the % may be the effect or the level left; conditions: time 16 day
HeLa = assay: Antiproliferative activity against human HeLa cells assessed as reduction in cell viability incubated for 72 hrs by MTT assay; format: functional, cell-based
HepG2 [12] = assay: Antiproliferative activity against human HepG2 cells assessed as reduction in cell viability incubated for 72 hrs by MTT assay; format: functional, cell-based; conditions: HepG2, 72 h
OVCAR-3 = assay: Antiproliferative activity against human OVCAR-3 cells assessed as reduction in cell viability incubated for 72 hrs by MTT assay; format: functional, cell-based; conditions: OVCAR-3, 72 h
NCI-H295R = assay: Antiproliferative activity against human NCI-H295R cells assessed as reduction in cell viability incubated for 72 hrs by MTT assay; format: functional, cell-based
MCF7 [13] = assay: Antiproliferative activity against human MCF7 cells assessed as reduction in cell growth incubated for 48 hrs by MTT assay; format: functional, cell-based; conditions: MCF7, 48 h
ARO = assay: Antiproliferative activity against human ARO cells assessed as reduction in cell growth incubated for 48 hrs by MTT assay; format: functional, cell-based
A549 [14] = assay: Antiproliferative activity against human A549 cells assessed as reduction in cell growth incubated for 48 hrs by MTT assay; format: functional, cell-based; conditions: A549, 48 h
HT-29 = assay: Antiproliferative activity against human HT-29 cells assessed as reduction in cell growth incubated for 72 hrs by MTT assay; format: functional, cell-based; conditions: HT-29, 72 h
PT-45 = assay: Antiproliferative activity against human PT-45 cells assessed as reduction in cell growth incubated for 72 hrs by MTT assay; format: functional, cell-based; conditions: PT-45, 72 h
OE19 = assay: Antiproliferative activity against human OE19 cells assessed as reduction in cell growth incubated for 72 hrs by MTT assay; format: functional, cell-based; conditions: OE19, 72 h
OE33 = assay: Antiproliferative activity against human OE33 cells assessed as reduction in cell growth incubated for 72 hrs by MTT assay; format: functional, cell-based; conditions: OE33, 72 h
A549 [15] = assay: Antiproliferative activity against human A549 cells assessed as reduction in cell growth incubated for 72 hrs by MTT assay; format: functional, cell-based; conditions: A549, 72 h
MDA-MB-468 = assay: Antiproliferative activity against human MDA-MB-468 cells assessed as reduction in cell growth incubated for 72 hrs by MTT assay; format: functional, cell-based; conditions: MDA-MB-468, 72 h
A-375 = assay: Antiproliferative activity against human A-375 cells assessed as reduction in cell growth incubated for 72 hrs by MTT assay; format: functional, cell-based; conditions: A-375, 72 h
Jurkat = assay: Antiproliferative activity against human Jurkat cells assessed as reduction in cell growth incubated for 72 hrs by MTT assay; format: functional, cell-based
[16] = test system: Panel NCI-60 (60 carcinoma cell lines); assay: Antiproliferative activity against human Panel NCI-60 (60 carcinoma cell lines) assessed as reduction in cell viability; format: functional, cell-based

Chain of Epidermal growth factor receptor (P00533 whole entry): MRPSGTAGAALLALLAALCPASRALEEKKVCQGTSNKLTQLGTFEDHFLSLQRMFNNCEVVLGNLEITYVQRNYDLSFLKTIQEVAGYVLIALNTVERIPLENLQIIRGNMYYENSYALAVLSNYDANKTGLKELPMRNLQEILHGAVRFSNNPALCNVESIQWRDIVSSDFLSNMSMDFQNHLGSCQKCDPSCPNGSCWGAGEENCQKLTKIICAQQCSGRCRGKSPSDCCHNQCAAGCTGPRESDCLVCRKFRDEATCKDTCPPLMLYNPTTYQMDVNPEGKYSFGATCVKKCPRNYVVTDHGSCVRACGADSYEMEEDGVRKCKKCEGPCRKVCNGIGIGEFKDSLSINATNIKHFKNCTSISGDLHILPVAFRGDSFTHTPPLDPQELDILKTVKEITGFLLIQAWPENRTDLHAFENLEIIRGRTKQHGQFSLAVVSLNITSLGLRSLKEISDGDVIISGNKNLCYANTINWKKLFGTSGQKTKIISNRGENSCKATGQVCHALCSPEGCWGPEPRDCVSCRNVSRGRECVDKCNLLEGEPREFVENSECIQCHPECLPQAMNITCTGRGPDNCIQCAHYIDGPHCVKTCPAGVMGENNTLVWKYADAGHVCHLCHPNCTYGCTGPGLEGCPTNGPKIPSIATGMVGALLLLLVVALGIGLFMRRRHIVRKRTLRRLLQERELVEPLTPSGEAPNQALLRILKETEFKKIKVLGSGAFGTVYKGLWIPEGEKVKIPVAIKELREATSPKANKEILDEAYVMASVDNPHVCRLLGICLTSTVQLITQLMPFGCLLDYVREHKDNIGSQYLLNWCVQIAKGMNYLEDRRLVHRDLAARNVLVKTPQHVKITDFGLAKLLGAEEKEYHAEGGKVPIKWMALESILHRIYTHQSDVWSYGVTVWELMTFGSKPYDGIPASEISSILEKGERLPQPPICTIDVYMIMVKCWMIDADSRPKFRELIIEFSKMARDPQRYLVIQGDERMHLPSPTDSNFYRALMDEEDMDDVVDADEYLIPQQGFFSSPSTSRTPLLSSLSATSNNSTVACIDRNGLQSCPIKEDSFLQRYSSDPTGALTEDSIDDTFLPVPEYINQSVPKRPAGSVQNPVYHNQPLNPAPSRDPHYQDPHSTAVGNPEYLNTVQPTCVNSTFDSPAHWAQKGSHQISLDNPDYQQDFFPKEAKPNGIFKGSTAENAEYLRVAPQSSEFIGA
Chain of Cytochrome P450 1A2 (P05177 whole entry): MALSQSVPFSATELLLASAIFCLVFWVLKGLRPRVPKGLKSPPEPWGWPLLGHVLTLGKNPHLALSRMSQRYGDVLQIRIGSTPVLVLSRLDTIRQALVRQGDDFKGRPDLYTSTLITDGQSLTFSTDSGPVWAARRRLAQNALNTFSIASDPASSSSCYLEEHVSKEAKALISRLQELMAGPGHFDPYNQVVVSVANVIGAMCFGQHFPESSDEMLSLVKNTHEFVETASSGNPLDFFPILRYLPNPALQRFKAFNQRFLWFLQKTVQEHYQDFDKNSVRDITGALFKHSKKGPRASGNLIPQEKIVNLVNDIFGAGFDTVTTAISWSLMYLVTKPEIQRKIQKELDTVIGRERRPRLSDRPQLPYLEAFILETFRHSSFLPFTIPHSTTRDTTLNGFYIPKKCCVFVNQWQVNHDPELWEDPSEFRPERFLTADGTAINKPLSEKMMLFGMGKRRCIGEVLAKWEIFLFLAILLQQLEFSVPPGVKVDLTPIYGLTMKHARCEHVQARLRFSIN
Chain of Dual specificity mitogen-activated protein kinase kinase 1 (Q02750 whole entry): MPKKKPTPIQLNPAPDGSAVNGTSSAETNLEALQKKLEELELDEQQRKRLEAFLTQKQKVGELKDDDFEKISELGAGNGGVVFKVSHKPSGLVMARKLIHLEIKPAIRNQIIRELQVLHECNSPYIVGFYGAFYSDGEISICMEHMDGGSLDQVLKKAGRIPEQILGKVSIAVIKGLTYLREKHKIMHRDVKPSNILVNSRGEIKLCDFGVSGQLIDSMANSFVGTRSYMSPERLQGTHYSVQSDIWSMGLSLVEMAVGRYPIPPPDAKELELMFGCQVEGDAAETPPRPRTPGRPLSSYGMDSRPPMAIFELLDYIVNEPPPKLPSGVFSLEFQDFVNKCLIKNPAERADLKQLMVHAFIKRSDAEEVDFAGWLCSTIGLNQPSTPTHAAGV

COc1cccc(-c2c[nH]c3c(F)cc(F)cc3c2=O)c1
IC50 (HepG2 [1]): 0.05 µM | IC50 (KB): 0.06 µM

CCCOc1ccc(-c2cc(=O)c3ccccc3o2)cc1
MIC (Staphylococcus aureus): 0.4 mg/L (≈ 1.43 µM) | inhibition [2]: 33.9%

CCOC(=O)C1=C[C@@H](OC(CC)CC)[C@H](NC(C)=O)[C@@H](N)C1 [OSELTAMIVIR]
EC50 (Influenza A virus): 12.7 µM | IC50 [3]: 1.9 µM

Oc1ccc2nc(-c3ccccc3O)ccc2c1
IC50 [4]: 6.5 µM | inhibition (Homo sapiens): > 80%

O=c1c(O)c(-c2ccc(O)c(O)c2)oc2cc(O)cc(O)c12 [QUERCETIN]
EC50 (Influenza A virus): 0.56 µM | IC50 [3]: 8.7 µM

COc1ccccc1-c1cc(=O)c2ccccc2[nH]1
EC50 (Influenza A virus): 4.96 µM | IC50 [3]: 1.3 µM

COc1ccc(-c2oc3c(OC)c(OC)c(OC)c(O)c3c(=O)c2OC)cc1O
IC50 (Tubulin): 0.8 µM | inhibition (Tubulin (Homo sapiens)): 59% | IC50 (MCF7 [5]): 0.13 µM

COc1ccc(-c2cc(=O)c3cc(OC)c4cccc(OC)c4c3[nH]2)cc1
IC50 (Cytochrome P450 1A2): 0.0041 µM

COc1cc2c(cc1CC=C(C)C)C(=O)NC(c1ccc(O)cc1)N2 (configuration not stated)
IC50 (HL-60): 0.25 µM | IC50 (MV4-11): 0.5 µM

COc1ccc(-c2oc3cc(O)c(OC)c(O)c3c(=O)c2OC)cc1O [CENTAUREIDIN]
inhibition (Tubulin (Homo sapiens)): 35% | IC50 (MCF7 [5]): 0.24 µM

CC(=O)Oc1cc2sc(-c3ccccc3)cc(=O)c2cc1OC(C)=O
EC50 [6]: 0.65 mg/L (≈ 1.83 µM)

COc1ccc(-c2cc(=O)c3cc(OC)c(OC)c(OC)c3o2)cc1
IC50 (Tubulin): 3 µM | inhibition (Tubulin (Homo sapiens)): 43% | IC50 (MCF7 [5]): 1.7 µM

COc1cccc(-c2cc(=O)c3ccccc3s2)c1N
IC50 [7]: 4.35 µM | IC50 [8]: 13.8 µM | IC50 (WiDr): 30.5 µM | IC50 (HT-1080): 29.5 µM

COc1cc(O)c2c(O)c(-c3cccc(Cl)c3)cnc2c1
IC50 [9]: 0.04 µM

Oc1ccc(-c2ccc3ccccc3n2)c2ccccc12
IC50 [4]: 6.5 µM | inhibition (Homo sapiens): > 80%

O=C1C[C@H](c2cccc(Br)c2)Nc2ccccc21
IC50 (DU-145 [10]): 0.4 µM | Activity (DU-145 [11]): 60%

COc1cccc(-c2cc(=O)c3ccccc3o2)c1N
IC50 [8]: 2.95 µM | IC50 (WiDr): 10 µM | IC50 (HT-1080): 8.6 µM

CCOC(=O)CCn1ccc2c3c(=O)cc(-c4ccccc4)[nH]c3ccc21
IC50 (Tubulin): 0.75 µM | inhibition (Tubulin (Homo sapiens)): 75% | IC50 (HeLa): 0.005 µM | IC50 (HepG2 [12]): 0.005 µM | IC50 (OVCAR-3): 0.005 µM | IC50 (NCI-H295R): 0.005 µM | IC50 (MCF7 [13]): 0.005 µM | IC50 (ARO): 0.005 µM | IC50 (A549 [14]): 0.005 µM | IC50 (HT-29): 0.005 µM | IC50 (PT-45): 0.005 µM | IC50 (OE19): 0.005 µM | IC50 (OE33): 0.005 µM | IC50 (A549 [15]): 0.005 µM | IC50 (MDA-MB-468): 0.005 µM | IC50 (A-375): 0.005 µM | IC50 (Jurkat): 0.005 µM

COc1cc(O)c2c(O)cc(-c3cccc(F)c3)nc2c1
IC50 [16]: 14.5 µM

O=c1cc(-c2ccccc2)[nH]c2ccc3c(ccn3CC3CC3)c12
IC50 (Tubulin): 0.9 µM | inhibition (Tubulin (Homo sapiens)): 83% | IC50 (OVCAR-3): 0.02 µM | IC50 (NCI-H295R): 0.02 µM | IC50 (MCF7 [13]): 0.02 µM | IC50 (ARO): 0.02 µM | IC50 (HT-29): 0.02 µM | IC50 (OE19): 0.02 µM | IC50 (MDA-MB-468): 0.02 µM | IC50 (A-375): 0.02 µM | IC50 (Jurkat): 0.02 µM

COc1cccc(-c2c[nH]c3c(F)cccc3c2=O)c1
IC50 (HepG2 [1]): 0.01 µM | IC50 (KB): 0.03 µM
